Measurements as given in US20240100146A1 (priority 2022, published 2024).

Test system: MHV1
Set-up: species or system A/J mice
Details: mouse, in vivo

CC(=O)N[C@H]1[C@H]([C@H](O)[C@H](O)CO)OC(C(=O)O)=C[C@@H]1N=C(N)N [zanamivir]
% protection (survival) against lethal MHV1 challenge: 0%
